Assay results taken from a melting point compilation (Tetko et al.; mined from patent text by program, amines drawn as free bases though some values may be those of a salt).

Structure (SMILES)	melting point
Cn1nnnc1SCc1ccccn1	78 to 81 °C
CCCOCCOc1cc2c(-c3ccccc3)c(CC(=O)Nc3ccc(Cl)cc3C(F)(F)F)c(=O)oc2cc1Cl	170 to 171 °C
O=C(C=Cc1ccc(F)cc1)c1ccc(C(F)(F)F)cc1	89 to 92 °C
NC(=O)[C@@H]1[C@H](Nc2nc(Nc3ccc4c(c3)CCC(NCC(F)F)CC4)ncc2Cl)[C@H]2C=C[C@@H]1C2 (some centres undefined)	128 °C
CN(C)c1nnc(SCC(=O)C23CC4CC(CC(C4)C2)C3)s1	150 to 151 °C
COc1ccc2cc3c(c(-c4ccc(C)cc4)c2c1)CNC3=O	298 to 301 °C
CC(=O)C(Cl)=NNc1ccc(Oc2ccccc2)cc1	108 to 111 °C
Oc1ccc(Oc2cccc(C(F)(F)F)n2)cc1	94 to 95 °C
NCCCCCNc1ncc2ncnc(Nc3ccc(F)c(Cl)c3)c2n1	153 to 155 °C
CC(=O)OC1CSC(Oc2ccc(-c3ccncc3)cc2F)C(OC(C)=O)C1OC(C)=O (centres undefined)	179 °C
CCCCCC(=O)c1cccc(OCc2ccc3ccccc3c2)c1	52 to 55 °C
COc1ccc2c(n1)C1(CO2)C(=O)N(Cc2ccc(C(F)(F)F)o2)c2ccc(F)cc21 (centres undefined)	158 to 160 °C
COc1ccc(NC(=O)c2ccc(C#N)cc2)cc1	155 to 157 °C
O=C(c1ccccc1[N+](=O)[O-])C1CCN(C(=O)C(F)(F)F)CC1	126 °C
Fc1ccc(-c2ccc(-c3cn([C@H]4CN5CCC4CC5)nn3)cc2)cn1	181 °C
CN1[C@H]2CC[C@@H]1[C@H](C=O)[C@@H](c1ccc(Cl)c(Cl)c1)C2	131 to 135 °C
O=C(O)Cc1c(C(=O)c2cccc(-c3ccco3)c2)[nH]c2cc(Cl)ccc12	246 to 249 °C
Cc1cc2ncnn2nc1OCC(CS(N)(=O)=O)C(C)C (centres undefined)	196 to 197 °C
CC(c1cc(Cl)cc(Cl)c1O)c1cc(F)cc(Cc2cc(Cl)ccc2O)c1O (centres undefined)	166 °C
COc1cc(C#N)ccc1-c1cc2cc(Cl)c(Cl)cc2[nH]1	241 to 244 °C

Structure (SMILES)	melting point
Fc1ccc(-c2cc(Cn3cnc4c(Cl)nc5ccccc5c43)on2)cc1	219 to 220 °C
COc1ccc(C(=O)Nc2ccccc2)cc1NCc1cccc(Cl)c1	203 to 205 °C
CCOc1cc2c(c3c1OC(C)(C)C3)C(c1cccc(C(=O)NCC(N)=O)c1)=NC(C)(C)C2	127 to 128 °C
CCC(Cn1cncn1)(C(=O)O)c1ccc(Cl)cc1Cl (centres undefined)	206 to 208 °C
O=c1cnn(-c2ccc(C(c3ccc(Cl)cc3)c3nc(-c4ccccc4)cs3)c(Cl)c2)c(=O)[nH]1 (centres undefined)	90 °C
CC(C)(C)[Si](C)(C)OCCn1ccc([N+](=O)[O-])n1	76 to 77 °C
CCCCc1ccc(C(=O)Nc2cc(CCCC)c(NC(=O)c3ccc(CCCC)cc3)c3c2C(=O)c2ccccc2C3=O)cc1	180 to 181 °C
O=c1c2ccccc2ccn2c(SC(F)(F)F)ccc12	137 to 138 °C
CCOC(=O)C(=CO)CCN1CCC(C2(c3ccc(F)cc3)OCCO2)CC1	117 °C
CC1(N)CCC(=O)N(C(=O)OCc2ccccc2)C1=O (centres undefined)	150 to 152 °C
COc1ccc(CCCC(=O)NC(NC(Cc2ccccc2C)=NC#N)C(C)(C)C)cc1 (centres undefined)	171 to 172 °C
Cc1ccnc(C(=O)c2[nH]c3cc(Cl)ccc3c2NC(=O)[C@H](C)O)c1	206 to 207 °C
COCOc1cc(OC)ccc1C(=O)O	96 to 97 °C
NS(=O)(=O)c1cscc1C(=O)Cl	236 to 238 °C
COC(=O)c1cc(Cl)ccc1N(C(C)C)S(=O)(=O)c1ccc(C)cc1	114 to 116 °C
Cc1noc(-c2ccc(CN3C(=O)C4(COc5cc6c(cc54)OCCO6)c4ccccc43)cc2)n1 (centres undefined)	177 to 178 °C
CS(=O)(=O)OCCOc1ccccc1OCC(F)(F)F	36 to 38 °C
COC(=O)c1ccc(Cc2cn(C)c3ccc(C=O)cc23)c(OC)c1	116 to 118 °C
O=c1cccccc1N1CCN(CCO)CC1	85 to 86 °C
